This is an account of results in ChEMBL document CHEMBL1123182, “Synthesis and biological properties of chitin synthetase inhibitors resistant to cellular peptidases” (J Med Chem, 1986).

Molecules are shown by their SMILES. In brackets after ≈: the same amount, converted by molar mass.

In test [1] the test system is Candida albicans. Description: Compound was tested for the inhibitory activity against Candida albicans cell growth. The class given is functional.
Test [2] concerns Candida albicans. Briefly: Millimolar concentration at which some morphological effects in Candida albicans cells (about 5% of cells) was determined. The class given is functional. The note with it: read-out: MEC.
Test [3] deals with Candida albicans. Description: Millimolar concentration of the lowest concentration that clearly inhibited the cell growth of Candida albicans was determined. In kind it is functional.
Test [4] has as its target T1, Chitin synthase 1 (Candida albicans, UniProt P23316). Description: Compound was tested for the inhibitory activity against chitin synthetase.
In test [5] the target is Chitin synthase 1 (Candida albicans) (UniProt P23316). Description: Compound was tested for the inhibitory activity against chitin synthetase in the mixed membrane preparation from Candida albicans. In kind it is cell membranes.
Chain of Chitin synthase 1 (Candida albicans) (P23316 whole entry, looked up): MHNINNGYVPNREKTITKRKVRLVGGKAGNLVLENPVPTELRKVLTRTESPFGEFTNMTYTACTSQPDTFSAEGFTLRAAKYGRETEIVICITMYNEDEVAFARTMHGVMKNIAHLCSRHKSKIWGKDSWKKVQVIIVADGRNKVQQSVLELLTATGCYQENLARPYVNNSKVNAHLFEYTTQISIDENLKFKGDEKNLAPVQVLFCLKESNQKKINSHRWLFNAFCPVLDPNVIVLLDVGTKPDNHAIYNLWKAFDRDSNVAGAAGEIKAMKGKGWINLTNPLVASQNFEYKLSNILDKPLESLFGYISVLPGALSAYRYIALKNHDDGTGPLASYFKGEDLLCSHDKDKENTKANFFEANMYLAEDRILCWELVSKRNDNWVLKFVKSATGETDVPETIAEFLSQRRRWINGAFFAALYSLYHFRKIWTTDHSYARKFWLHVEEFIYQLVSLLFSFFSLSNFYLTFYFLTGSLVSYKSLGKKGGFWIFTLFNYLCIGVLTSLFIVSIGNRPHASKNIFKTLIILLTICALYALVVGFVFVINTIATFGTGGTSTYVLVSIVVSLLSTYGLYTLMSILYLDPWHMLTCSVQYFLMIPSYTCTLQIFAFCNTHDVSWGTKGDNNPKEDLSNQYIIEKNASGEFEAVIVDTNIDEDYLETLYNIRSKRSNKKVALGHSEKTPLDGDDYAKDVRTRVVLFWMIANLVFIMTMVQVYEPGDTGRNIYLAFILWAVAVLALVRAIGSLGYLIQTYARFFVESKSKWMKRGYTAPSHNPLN
Test [6] has the same target. Briefly: Compound was tested for the inhibitory activity against chitin synthetase in the permeabilised cell assay.
Test [7] deals with Candida albicans. Briefly: Concentration at which 50% of the Candida albicans cells were not viable. In kind it is functional.
Test [8] has as its target T1, Chitin synthase 1. Briefly: Inhibition constant (KI) for the mmf chitin synthetase assay performed at constant inhibitor and varying substrate concentrations.

T1 sequence (P23316 whole entry): as the sequence (P23316 whole entry, looked up) above

For `CCCCCCCC(=O)NC(Cc1ccccc1)C(=O)NC(C(=O)NC(C(=O)O)[C@H]1O[C@@H](n2cc(C(=O)O)c(=O)[nH]c2=O)[C@H](O)[C@@H]1O)C(O)C(O)COC(N)=O` (some centres not stated), the Viability in test [1] was above 1 mM. In addition, the minimal effective concentration in test [2] amounted to 1000 µM. Further, the MIC in test [3] worked out at 1000 µM (≈ 795 µg/mL). The compound also registered a Ki in test [4] of 7.15 µM. The ID50 in test [5] amounted to 47.5 µM; in test [6] it was 50 µM.
`CCCCC(N)C(=O)NC(C(N)=O)[C@H]1O[C@@H](n2ccc(=O)[nH]c2=O)[C@H](O)[C@@H]1O` (some centres not stated): the minimal effective concentration in test [2] was above 4000 µM. Further, the “concentration killing 50% of cells” value in test [7] is given as above 4 mM. The compound further had an MIC in test [3] above 1000 µM. Besides, the Ki in test [8] came out at 246 µM. Besides, the ID50 in test [5] is 200 µM; in test [6], above 100 µM.
`NC(Cc1ccccc1)C(=O)N/C(=C/c1ccccc1)C(=O)NC(C(=O)O)[C@H]1O[C@@H](n2ccc(=O)[nH]c2=O)[C@H](O)[C@@H]1O` (some centres not stated) gave a Viability in test [1] above 2 mM. Further, the minimal effective concentration in test [2] is above 2000 µM. Further, the MIC in test [3] is above 2000 µM. The affinity in test [4] corresponds to a Ki of 11.3 µM. Besides, the ID50 in test [5] was 40 µM; in test [6] it was 80 µM.
For the compound `NOC(Cc1ccccc1)C(=O)NC(C(=O)O)[C@H]1O[C@@H](n2ccc(=O)[nH]c2=O)[C@H](O)[C@@H]1O` (some centres not stated), the minimal effective concentration in test [2] is above 3000 µM. For the same compound, in test [7], the “concentration killing 50% of cells” value is on record as above 3 mM. Moreover, the lowest concentration to inhibit growth in test [3] (MIC) was 3000 µM (≈ 1350 µg/mL). In test [8], this compound gave a Ki of 978 µM. The results for the ID50 in test [5] and in test [6] were 100 µM and above 100 µM, respectively.
`CCCNC(CC(C)C)C(=O)NC(C(=O)O)[C@H]1O[C@@H](n2ccc(=O)[nH]c2=O)[C@H](O)[C@@H]1O` (some centres not stated): the Viability in test [1] is recorded as above 1 mM. Besides, in test [2], the minimal effective concentration is above 2500 µM. The compound also yielded an MIC in test [3] of 2500 µM (≈ 1110 µg/mL). The affinity in test [4], expressed as Ki, was 145 µM. In addition, the ID50 in test [5] and in test [6] was above 100 µM each time.
As for `N[C@@H](Cc1c[nH]c2ccccc12)C(=O)NC(C(=O)O)[C@H]1O[C@@H](n2ccc(=O)[nH]c2=O)[C@H](O)[C@@H]1O` (some centres not stated), in test [2], the minimal effective concentration amounted to 4000 µM. The “concentration killing 50% of cells” value in test [7] was above 4 mM. In test [3], this compound registered an MIC above 1000 µM. The compound also returned a Ki in test [8] of 1060 µM. The ID50 in test [5] and in test [6] was above 100 µM throughout.
As to `NC(=O)OCC(O)C(O)C(N)C(=O)NC(C(=O)O)[C@H]1O[C@@H](n2cc(C(=O)O)c(=O)[nH]c2=O)[C@H](O)[C@@H]1O` (some centres not stated), the minimal effective concentration in test [2] stood at 20 µM. Further, the “concentration killing 50% of cells” value in test [7] was found to be 1 mM. The same compound had an MIC in test [3] of 60 µM (≈ 31.3 µg/mL). This compound came in with a Ki in test [8] of 0.59 µM. In addition, the ID50 in test [6] came out at 1 µM.
On to `CCCCC(NC)C(=O)NC(C(=O)O)[C@H]1O[C@@H](n2ccc(=O)[nH]c2=O)[C@H](O)[C@@H]1O` (some centres not stated), for which the minimal effective concentration in test [2] is 20 µM. In addition, the “concentration killing 50% of cells” value in test [7] is above 4 mM. Also, the MIC in test [3] was above 1000 µM. Further, the Ki in test [8] stood at 218 µM. The ID50 in test [5] stood at 120 µM; in test [6] it was 97.5 µM.
